Measured values as given in patent US6130058A, “Human NMDA R2A receptor subunit and isoforms of the human NMDA-R1 receptor subunit and encoding cDNAs” (Merck Sharpe & Dohme Ltd., priority 1992, dated 2000).

What was measured:
[1] = target: recombinant R1a+R2A NMDA receptor expressed by population B cells (Homo sapiens, UniProt Q05586+Q12879); assay: Whole cell patch clamp electrophysiology on population B cells; assay type: cell-based
Description: The nature of the NMDA receptor expressed by population B cells has been extensively characterised by electrophysiological techniques, using whole cell patch clamp.

[2] = system: untransfected Ltk- cells; assay: Radioligand binding to untransfected Ltk- cells (control); set-up: species or system mouse
Protocol: (§1) The nature of the recombinant R1a NMDA receptors prepared as described in Example 3 was addressed by characterization of the glycine site binding pharmacology, using the glycine site antagonist [^3 H]-L-689,560. For radioligand binding assays, cells which had been induced by culture in dexamethasone containing medium for 3-5 days were scraped off into 5 mM Tris-Acetate, pH 7.0 at 4° C. (buffer 1) and pelleted (20,000 rpm, Sorvall RC5C centrifuge). The cell pellet was resuspended in buffer 1, homogenised using an Ultra-Turrax homogeniser and then pelleted as above. This was repeated once more, and the cells then resuspended in 50 mM Tris-Acetate, pH 7.0 at 4° C. (buffer 2) at a protein concentration of 1 mg/ml. […] After 2 hours incubation on ice the membranes were harvested onto filters using a Brandel cell harvester, washed with cold buffer 2, and bound radioactivity determined by scintillation counting. Non-specific binding was determined in a parallel incubation containing 10 mM glycine. […]
(§2) For radioligand binding assays, cells which had been induced by culture in dexamethasone, MgCl2 and D-AP5 containing medium for 3-5 days were scraped off into 5 mM Tris-Acetate, pH 7.0 at 4° C. […] After 2 hours at 25° C. in the presence of 30 μM glycine and 30 μM L-glutamate the membranes were washed with buffer 1 and bound radioactivity determined by scintillation counting. […]

[3] = target: T1, recombinant R1a NMDA receptors (Homo sapiens, UniProt Q05586); assay: [3H]-L-689,560 radioligand binding to membranes of R1a transfected Ltk- cells (population A); conditions: 1 nM radioligand, 100 μg protein, 2 hours on ice, dexamethasone-induced cells
T1 construct: expressed in transfected cells
Protocol: Ltk^- cells were obtained from the Salk Institute for Biological Studies, San Diego, Calif. Cells were grown at 37° C., 5-8% CO2, in Modified Eagles Medium containing penicillin, streptomycin and 10% fetal calf serum. […] For co-transfection, Ltk^- cells were plated in dishes (approx. 2×10^5 cells/dish) and grown overnight. The transfection was performed by calcium phosphate precipitation using a kit (purchased from 5 Prime→3 Prime Products, Westchester, Pa.). Co-transfection was performed according to manufacturers' instructions, using 5 μg of each subunit DNA construct per 10 cm dish of cells. After 2 days in culture the cells were divided 1:8 into culture medium containing 1 mg/ml neomycin [Geneticin (obtainable from Gibco BRL, Paisley, Scotland, United Kingdom)]. After a further week the concentration was increased to 1.5 mg/ml, and then 2 mg/ml 1 week after that. Resistant clones of cells were isolated and subcloned using cloning cylinders. Subclones were analysed using radioligand binding: subclones were grown in 10 cm culture dishes, and when confluent changed into culture medium containing 1 μM dexamethasone (obtainable from Sigma Chemical Company, Poole, Dorset, United Kingdom). […] Rev. Pharmacol. […] Non-specific binding was determined in a parallel incubation containing 10 mM glycine. […]

[4] = target: T2, recombinant R1a+R2A receptors (Homo sapiens, UniProt Q05586); assay: [3H]-L-689,560 radioligand binding to membranes of R1a+R2A transfected Ltk- cells (population B)
T2 construct: expressed in transfected cells
Protocol: as §1, §2

[5] = target: recombinant R1a+R2A NMDA receptors (Homo sapiens, UniProt Q05586+Q12879); assay: [3H]-dizocilpine radioligand binding to membranes of R1a+R2A transfected Ltk- cells (population B); conditions: 2 nM radioligand, 100 μg protein, 2 hours at 25° C., 30 μM glycine and 30 μM L-glutamate
Protocol: Ltk^- cells were obtained from the Salk Institute for Biological Studies, San Diego, Calif. Cells were grown at 37° C., 5-8% CO2, in Modified Eagles Medium containing penicillin, streptomycin and 10% fetal calf serum. […] For co-transfection, Ltk^- cells were plated in dishes (approx. 2×10^5 cells/dish) and grown overnight. The transfection was performed by calcium phosphate precipitation using a kit (purchased from 5 Prime→3 Prime Products, Westchester, Pa.). Co-transfection was performed according to manufacturers' instructions, using 5 μg of each subunit DNA construct per 10 cm dish of cells. After 2 days in culture the cells were divided 1:8 into culture medium containing 1 mg/ml neomycin [Geneticin (obtainable from Gibco BRL, Paisley, Scotland, United Kingdom)]. […] Subclones were analysed using radioligand binding: subclones were grown in 10 cm culture dishes, and when confluent changed into culture medium containing 1 μM dexamethasone (obtainable from Sigma Chemical Company, Poole, Dorset, United Kingdom). […]
For radioligand binding assays, cells which had been induced by culture in dexamethasone, MgCl2 and D-AP5 containing medium for 3-5 days were scraped off into 5 mM Tris-Acetate, pH 7.0 at 4° C. […] Non-specific binding was determined in a parallel incubation containing 100 μM dizocilpine.

**Q.** `O=C(O)[C@H]1C[C@@H](CP(=O)(O)O)CCN1` (relative stereo) [CGS 19,755] was tested. Which “antagonism of the response to glutamate and glycine” value [1] did it give?
**A.** antagonised

**Q.** With `O=C(Nc1ccccc1)N[C@@H]1C[C@@H](C(=O)O)Nc2cc(Cl)cc(Cl)c21` (relative stereo) [[^3 H]-L-689,560] as the compound, how does the “binding to untransfected Ltk- cells” value ([2]; [3H]-L-689,560 binding conditions, 1 nM) read?
**A.** No binding

**Q.** And the “level of [3H]-L-689,560 bound” value [3]?
**A.** up to 3700 fmols/mg protein

**Q.** And the “level of [3H]-L-689,560 bound” value [4]?
**A.** up to 500 fmols/mg protein

**Q.** `C[C@]12N[C@H](Cc3ccccc31)c1ccccc12` [[^3 H]-dizocilpine, dizocilpine] was tested. Which “binding to untransfected Ltk- cells” value ([2]; [3H]-dizocilpine binding conditions, 2 nM) did it give?
**A.** No binding

**Q.** And the “level of [3H]-dizocilpine bound” value [5]?
**A.** up to 200 fmols/mg protein
